Earlier results, collected in US20050065087A1, “Pharmaceutical compositions and methods comprising combinations of 2-alkylidene-19-nor-vitamin D derivatives and a bone morphogenetic protein” (Pfizer Inc., priority 2003, published 2005).

Legend:
[1] = system: male weanling rats on vitamin D-deficient diet; details: chronic 7 days, 130 and/or 260 pmol/day as tested
[2] = system: male weanling rats on vitamin D-deficient diet; details: for bone calcium mobilization (in words): chronic 7 days, 130 and 260 pmol/day
[3] = system: HL-60 cells; details: method of Ostrem et al.

| Compound | intestinal calcium transport (in words) [1] | serum calcium value (text sentence) ([2]; 'twice the dose ... at the 130 pmol dose' as printed, 7 days) [mg/100 ml] | inducing differentiation of HL-60 cells to the monocyte (in words) [3] | bone calcium mobilization (in words) [2] | bone calcium mobilization activity relative to the native hormone, 'possible' upper estimate ([2]; 130 pmol/day, chronic mode 7 days) | bone calcium mobilization activity relative to 1,25-(OH)2D3 (native hormone) ([2]; chronic mode 7 days, estimate in the text) |
| --- | --- | --- | --- | --- | --- | --- |
| C=C1/C(=C\C=C2/CCC[C@]3(C)[C@@H]([C@H](C)CCCC(C)(C)O)CC[C@@H]23)C[C@@H](O)C[C@@H]1O [1,25-(OH)2D3, 1,25-dihydroxyvitamin D3, reference compound] | expected elevation | 13.8 | – | – | – | – |
| C=C1[C@H](O)CC(=C/C=C2\CCC[C@]3(C)[C@@H]([C@H](C)CCCC(C)(C)O)CC[C@@H]23)C[C@H]1O [2-Methylene-19-Nor-1,25-(OH)2D3, 1α,25-dihydroxy-2-methylene-19-nor-vitamin D3] | no intestinal calcium transport activity | – | activity similar to 1,25-(OH)2D3 | extremely strong bone calcium mobilization | – | – |
| C=C1[C@H](O)CC(=C/C=C2\CCC[C@]3(C)[C@@H]([C@@H](C)CCCC(C)(C)O)CC[C@@H]23)C[C@H]1O [2-Methylene-19-Nor-20S-1,25-(OH)2D3, (20S)-1α,25-dihydroxy-2-methylene-19-nor-vitamin D3] | no significant change | – | extremely potent | most potent compound tested | 100-1,000 times | at least 10 times |
